According to patent US10799479B2, “Self-emulsifying formulations of DIM-related indoles” (BioResponse, L.L.C., priority 2015, dated 2020):
Blank lines part the entries; values can stand above or below the compound they belong to.

Experiments:
[1] = Single dose human oral bioavailability study; type: in vivo; details: single oral dose 300 mg DIM, healthy individuals, mean
Protocol: In Part I of the Study, a treatment group was administered a 300 mg dose of DIM from BR-DIM or a 300 mg dose of DIM from crystalline DIM on the first study day, followed by crossover to the other DIM formulation on the second study day, at least 14 days following the first treatment. 3 subjects were given crystalline DIM, 4 subjects were given BR-DIM.
In Part II of the Study, five individuals, four of whom participated in Part I of the Study, were administered a 300 mg dose of DIM from DIM SMEDDS Formulation D. Testing of DIM SMEDDS formula D took place on one day with 5 subjects. The subjects were all healthy, adult volunteers, both male and female, not consuming DIM containing supplements and in a fasting state on study days. […]
The concentrations of DIM in human plasma samples were determined by a validated high-performance liquid chromatography with tandem mass spectrometry (LC-MS/MS) method. […] The analytes were monitored by a Waters Micromass triple quadrupole mass spectrometer (Milford, Mass., USA) using an electrospray probe in the positive ionization mode operating at a cone voltage of 23V for DIM and 13V for the internal standard zileuton. […] The transitions at 129.9>76.8 and 237.1>161.1 were monitored for DIM and zileuton, respectively. […] The lower limit of quantitation (LLOQ) was determined at 10 ng/mL for DIM in human plasma. […]

[2] = Dispersion test in USP dissolution bath (DLS Nicomp, polarized light microscopy); type: physicochemical
Protocol: A dispersion test was performed on the miscible formulations in a USP dissolution bath. 830 μL of miscible mixture was introduced in 250 mL of purified water at 37° C. under agitation with a paddle at 100 rpm. Performance criteria were: ease of emulsification, homogeneity and fineness of the dispersion. The fineness of the dispersion was assayed by dynamic light scattering (DLS, Particle Sizing Systems Nicomp). Photomicrographs were obtained of crystals observed during light microscopic observation following 30 minutes of dispersion.
The dispersion of the formulation in 250 mL of water (equivalent to the FDA glass of water) was followed for observance of the precipitation of DIM after 30 minutes and was checked by polarized light microscopy. Study of Formulation “D” lead to the formation of a fine and turbid emulsion with a crystal formation showing particle size distribution of 283±66 nm (volume). […] The advantageous reduction in crystal size for Formulation N compared to Formulation D is attributed, at least in part, to a contribution from Peppermint Oil and low concentration of Polysorbate 80 (see FIG. 4, A, B, and C).

[3] = source not stated; cited from earlier work
[4] = Shake-flask determination of maximum solubility of DIM; type: physicochemical; details: HPLC
Protocol: The solubility was determined as described by Lindenberg et al., 2004, Eur J Pharm Biopharm. 58(2):265-78. […] The vials were incubated at 37±0.5° C. while shaking on a “Polymax 1040” orbital shaker (Heidolph, Schwabach). The samples of the solutions were taken after 4 or 24 hours by pressing the Uniprep® plunger down, diluted as appropriate, and the concentration of DIM was analyzed by HPLC, as described below. The measurements were done in triplicate. The maximum concentration of DIM in aqueous media used in this study was 0.6 μg/ml. […]

[5] = DIM solubility in excipients (incremental addition, microscopic observation); type: physicochemical; details: olive oil or sunflower oil
Protocol: The first step in this development process was the testing of a variety of excipients chosen as potentially active in solubilizing DIM. […] The method involved weighing of approximately 2 grams of each of the liquid excipients into a small vial. Subsequently, a small amount of DIM was added and the mixture was shaken.
The method involved weighing of approximately 2 grams of each of the liquid excipients into a small vial. Subsequently, a small amount of DIM was added and the mixture was shaken. […] Continued testing of acceptable oil solvents for, e.g., nutritional supplement, self-emulsifying formulations using DIM as a representative DIM-related indole active ingredient included testing of the following oils: […]

Cmax [1]: 18.1 ng/mL | Particle Size Diameter after Dispersion in Water (nm) ([2]; Malvern Mastersizer, DIM as supplied by BioResponse): 3,010^1 nm | DIM Crystal Characteristics In Water Dispersion ([2]; polarized light microscopy after 30 minutes): Large
Compound: c1ccc2c(Cc3c[nH]c4ccccc34)c[nH]c2c1 [Crystalline DIM, 3,3′-diindolylmethane]

Compound: CC(C)=CCC/C(C)=C/CC/C(C)=C/CC/C(C)=C/CC1=C(C)C(=O)c2ccccc2C1=O [menaquinone-4]
Log P of 2nd API drug [3]: 10-12

concentration of DIM in Octanol [4]: 2,300 μg/ml | ability to dissolve DIM [5]: very low
Compound: c1ccc2c(Cc3c[nH]c4ccccc34)c[nH]c2c1 [DIM, 3,3′-diindolylmethane]

Compound: Vitamin D
Log P of 2nd API drug [3]: 7.5
